# Source: ChEMBL document CHEMBL1201862, “PubChem BioAssay data set” (2004)
# The source made the active and inactive calls.
# Key:
# [1] = target: T1, Carboxy-terminal domain RNA polymerase II polypeptide A small phosphatase 1 (Homo sapiens, UniProt Q9GZU7); experiment: CTDSP1 inhibitors, concentration-response, biochemical, absorbance readout, ultra-high-throughput screen actives (AID 540297); assay type: functional
# T1 sequence (Q9GZU7 whole entry): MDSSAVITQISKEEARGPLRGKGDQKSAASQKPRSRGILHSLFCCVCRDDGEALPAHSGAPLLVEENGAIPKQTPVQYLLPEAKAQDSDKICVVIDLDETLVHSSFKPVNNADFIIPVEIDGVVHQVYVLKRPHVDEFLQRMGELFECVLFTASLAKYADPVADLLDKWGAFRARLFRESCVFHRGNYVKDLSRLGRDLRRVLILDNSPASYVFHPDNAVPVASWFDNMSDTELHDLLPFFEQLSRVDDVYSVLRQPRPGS
# [2] = target: 26S proteasome non-ATPase regulatory subunit 14 (Homo sapiens, UniProt O00487); experiment: inhibition of proteasome subunit RPN11 – biochemical, fluorescence polarization, uHTS hits, confirmation (AID 602368); assay type: functional
# [3] = target: 72 kDa type IV collagenase (Homo sapiens, UniProt P08253); experiment: Dose Response validation of uHTS RPN11 inhibitor hits using a MMP-2 Fluorescence assay.; assay type: functional
# Prothrombin = Prothrombin (Bos taurus, UniProt P00735); experiment: thrombin protease inhibitors – biochemical, fluorescence polarization, uHTS hits, dose response (AID 602369); assay type: functional
# [4] = intracellular Trypanosoma cruzi inhibitors in host cells – cell-based, plate reader, cherry-pick samples, set 3, dose response (AID 651818); assay type: functional;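 further: compounds incubated with infected cells for about four days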
# [5] = Vero E6 cell cytotoxicity, dose response, cytotoxicity control for non-replicating M. tuberculosis project, secondary assay (AID 492998); assay type: functional, VeroE6; settings: Vero C1008
# cells = assay type: functional
# [6] = target: T2, Rac GTPase-activating protein 1 (Homo sapiens, UniProt Q9H0H5); experiment: blockers of MgcRacGAP-driven Rac1 GTP hydrolysis – biochemical, ADP Hunter fluorescence, primary and confirmatory, confirmation (AID 624330); assay type: functional
# T2 sequence (Q9H0H5 whole entry): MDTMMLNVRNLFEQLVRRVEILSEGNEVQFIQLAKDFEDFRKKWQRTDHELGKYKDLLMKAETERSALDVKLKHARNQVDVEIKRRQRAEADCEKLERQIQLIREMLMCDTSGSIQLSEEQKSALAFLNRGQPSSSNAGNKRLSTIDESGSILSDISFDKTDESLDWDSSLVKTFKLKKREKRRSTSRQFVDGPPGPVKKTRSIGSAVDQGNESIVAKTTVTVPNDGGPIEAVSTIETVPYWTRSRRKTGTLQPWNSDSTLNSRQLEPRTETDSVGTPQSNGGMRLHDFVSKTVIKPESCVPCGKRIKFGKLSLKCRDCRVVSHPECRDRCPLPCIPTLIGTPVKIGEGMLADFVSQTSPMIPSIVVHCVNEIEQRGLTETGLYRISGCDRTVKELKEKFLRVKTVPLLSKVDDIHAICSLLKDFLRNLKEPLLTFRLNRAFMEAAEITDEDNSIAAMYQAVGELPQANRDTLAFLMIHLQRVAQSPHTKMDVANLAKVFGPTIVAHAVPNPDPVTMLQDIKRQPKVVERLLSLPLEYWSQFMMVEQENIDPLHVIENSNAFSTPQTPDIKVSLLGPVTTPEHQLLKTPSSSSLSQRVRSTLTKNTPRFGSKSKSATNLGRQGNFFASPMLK
# [7] = target: Glucose-6-phosphate 1-dehydrogenase (Homo sapiens, UniProt P11413); experiment: inhibition of Homo sapiens G6PD, dose series – biochemical, fluorescence, selectivity assay for P. falciparum G6PD inhibitor project, dose response (AID 504792); assay type: functional
# [8] = luciferase reporter signal suppression in cells – H4 neuroglioma cells, luminescence, dose response (AID 1990); assay type: functional, cell-based
# [9] = Luminescence Cell-Based Dose Response HTS to Identify Inhibitors of 5'UTR Stem-Loop Driven Prion Protein mRNA Translation in H4 Neuroglioblastoma Cells. [Related pubchem assays: 1827 (Project Summary), 1813 (Primary HTS)]; assay type: functional
# [10] = alpha-synuclein stem-loop luciferase translation blockers – H4 neuroglioma cells, luminescence, confirmation (AID 1988); assay type: functional, cell-based
# [11] = Luminescence Cell-Based Dose Retest to Confirm Inhibitors of Cancer Stem Cells. [Related pubchem assays (depositor defined):AID2717, AID2721]; assay type: functional; settings: Homo sapiens
# Vero = experiment: cells; assay type: functional; settings: Chlorocebus sabaeus
# Caspase-3 = target: T3, Caspase-3 (Homo sapiens, UniProt P42574); assay type: functional;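 further: Dose-response selectivity test against caspase-3 for candidate inhibitors of sentrin-specific proteases (SENPs)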
# T3 sequence (P42574 whole entry): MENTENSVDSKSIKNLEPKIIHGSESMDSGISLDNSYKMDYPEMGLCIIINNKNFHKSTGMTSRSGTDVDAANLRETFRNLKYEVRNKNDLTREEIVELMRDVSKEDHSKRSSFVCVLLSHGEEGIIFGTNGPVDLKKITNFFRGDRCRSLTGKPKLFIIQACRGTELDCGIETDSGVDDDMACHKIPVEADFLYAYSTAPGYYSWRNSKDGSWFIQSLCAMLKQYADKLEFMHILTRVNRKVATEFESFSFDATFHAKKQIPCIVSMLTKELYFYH
# [12] = target: T4, Sentrin-specific protease 7 (Homo sapiens, UniProt Q9BQF6); assay type: functional;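 further: Luminescence-based dose-response confirmation of ultra-high-throughput screening hits, measuring inhibition of SENP7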
# T4 sequence (Q9BQF6 whole entry): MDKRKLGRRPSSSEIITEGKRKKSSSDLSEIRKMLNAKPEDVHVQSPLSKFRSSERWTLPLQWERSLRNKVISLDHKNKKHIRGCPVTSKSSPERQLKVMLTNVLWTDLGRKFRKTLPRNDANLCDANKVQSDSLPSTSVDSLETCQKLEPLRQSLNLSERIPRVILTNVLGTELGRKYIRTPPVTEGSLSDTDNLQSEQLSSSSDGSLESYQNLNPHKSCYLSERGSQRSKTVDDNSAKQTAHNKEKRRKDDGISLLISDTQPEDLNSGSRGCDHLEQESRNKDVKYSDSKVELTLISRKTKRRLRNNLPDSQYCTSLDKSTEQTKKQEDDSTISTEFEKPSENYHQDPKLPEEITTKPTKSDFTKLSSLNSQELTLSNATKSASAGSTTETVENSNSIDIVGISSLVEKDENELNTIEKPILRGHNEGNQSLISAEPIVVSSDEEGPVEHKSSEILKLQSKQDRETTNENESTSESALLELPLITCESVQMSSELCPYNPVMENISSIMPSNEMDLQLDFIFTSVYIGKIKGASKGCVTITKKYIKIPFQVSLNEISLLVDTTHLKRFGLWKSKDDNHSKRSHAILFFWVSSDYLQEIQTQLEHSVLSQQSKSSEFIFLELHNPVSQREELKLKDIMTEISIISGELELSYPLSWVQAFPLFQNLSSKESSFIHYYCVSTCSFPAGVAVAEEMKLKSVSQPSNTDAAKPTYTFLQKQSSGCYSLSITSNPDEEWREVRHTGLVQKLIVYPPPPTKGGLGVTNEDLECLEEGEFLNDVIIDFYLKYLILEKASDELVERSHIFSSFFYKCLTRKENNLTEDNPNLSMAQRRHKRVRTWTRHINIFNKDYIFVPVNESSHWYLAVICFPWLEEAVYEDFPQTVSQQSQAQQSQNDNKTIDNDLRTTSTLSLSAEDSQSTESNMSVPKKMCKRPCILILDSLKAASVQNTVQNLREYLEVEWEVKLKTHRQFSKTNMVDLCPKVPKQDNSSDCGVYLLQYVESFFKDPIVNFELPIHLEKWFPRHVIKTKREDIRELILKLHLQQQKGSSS
# [13] = target: T5, Sentrin-specific protease 6 (Homo sapiens, UniProt Q9GZR1); assay type: functional;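 further: Luminescence-based dose-response confirmatory assay of SENP6 inhibition, following up an ultra-high-throughput screen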
# T5 sequence (Q9GZR1 whole entry): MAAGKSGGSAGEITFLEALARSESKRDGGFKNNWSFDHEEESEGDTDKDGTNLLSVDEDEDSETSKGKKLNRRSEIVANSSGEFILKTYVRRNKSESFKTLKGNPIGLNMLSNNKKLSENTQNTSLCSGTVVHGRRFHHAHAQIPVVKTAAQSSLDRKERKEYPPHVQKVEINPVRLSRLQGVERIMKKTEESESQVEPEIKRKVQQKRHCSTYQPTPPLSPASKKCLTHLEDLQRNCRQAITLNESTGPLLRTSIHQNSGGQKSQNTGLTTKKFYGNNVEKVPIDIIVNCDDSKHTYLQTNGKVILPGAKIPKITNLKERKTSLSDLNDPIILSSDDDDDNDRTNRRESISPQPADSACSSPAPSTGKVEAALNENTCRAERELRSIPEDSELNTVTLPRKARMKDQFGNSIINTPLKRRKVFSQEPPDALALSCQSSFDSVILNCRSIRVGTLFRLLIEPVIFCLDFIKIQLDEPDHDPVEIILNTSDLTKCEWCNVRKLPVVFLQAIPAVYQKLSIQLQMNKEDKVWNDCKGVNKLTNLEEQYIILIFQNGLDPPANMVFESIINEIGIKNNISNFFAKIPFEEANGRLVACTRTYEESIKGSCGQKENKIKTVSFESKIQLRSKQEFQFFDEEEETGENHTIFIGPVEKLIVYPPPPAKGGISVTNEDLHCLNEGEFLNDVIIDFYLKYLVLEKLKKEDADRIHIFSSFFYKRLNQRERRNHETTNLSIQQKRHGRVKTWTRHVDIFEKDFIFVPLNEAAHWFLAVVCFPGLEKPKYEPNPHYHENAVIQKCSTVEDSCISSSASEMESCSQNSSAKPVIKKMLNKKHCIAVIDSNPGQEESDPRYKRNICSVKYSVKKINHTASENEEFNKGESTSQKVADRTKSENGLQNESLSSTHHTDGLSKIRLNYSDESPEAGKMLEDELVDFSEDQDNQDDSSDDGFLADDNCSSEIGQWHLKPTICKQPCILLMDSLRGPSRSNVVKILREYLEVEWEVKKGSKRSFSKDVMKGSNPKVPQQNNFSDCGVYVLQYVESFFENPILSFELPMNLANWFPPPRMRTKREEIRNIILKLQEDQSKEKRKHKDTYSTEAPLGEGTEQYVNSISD
# [14] = target: T6, Sentrin-specific protease 8 (Homo sapiens, UniProt Q96LD8); assay type: functional;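 further: luminescence read-out of SENP8 inhibition, dose-response confirmation following an ultra-high-throughput screen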
# T6 sequence (Q96LD8 whole entry): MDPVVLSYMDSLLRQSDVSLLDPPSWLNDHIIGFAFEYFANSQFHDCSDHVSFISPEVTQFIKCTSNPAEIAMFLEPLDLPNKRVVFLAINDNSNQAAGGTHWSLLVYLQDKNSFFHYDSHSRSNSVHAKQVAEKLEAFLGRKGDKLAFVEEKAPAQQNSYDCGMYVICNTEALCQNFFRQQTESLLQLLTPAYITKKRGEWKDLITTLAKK
# INS1 = experiment: INS-1E survival protection against cytokine death – cell-based, luminescence, retest, dose response (AID 449756); assay type: functional; settings: Rattus norvegicus;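 further: cell death triggered by IL-1 beta plus TNF-alpha plus IFN-gamma mixture; protective hits raise ATP signal compared with cytokine alone wells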
# Paired box protein Pax-8 = Paired box protein Pax-8 (Homo sapiens, UniProt Q06710); experiment: PAX8 transcriptional activity inhibition in RMG-I – RMG-I cells, luciferase, cherry-pick, dose response (AID 687027); assay type: functional, cell-based;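 further: luciferase reporter driven by Pax8 target thyroperoxidase promoter measured by SteadyGlo luminescence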
# Chain of Paired box protein Pax-8 (Q06710 whole entry): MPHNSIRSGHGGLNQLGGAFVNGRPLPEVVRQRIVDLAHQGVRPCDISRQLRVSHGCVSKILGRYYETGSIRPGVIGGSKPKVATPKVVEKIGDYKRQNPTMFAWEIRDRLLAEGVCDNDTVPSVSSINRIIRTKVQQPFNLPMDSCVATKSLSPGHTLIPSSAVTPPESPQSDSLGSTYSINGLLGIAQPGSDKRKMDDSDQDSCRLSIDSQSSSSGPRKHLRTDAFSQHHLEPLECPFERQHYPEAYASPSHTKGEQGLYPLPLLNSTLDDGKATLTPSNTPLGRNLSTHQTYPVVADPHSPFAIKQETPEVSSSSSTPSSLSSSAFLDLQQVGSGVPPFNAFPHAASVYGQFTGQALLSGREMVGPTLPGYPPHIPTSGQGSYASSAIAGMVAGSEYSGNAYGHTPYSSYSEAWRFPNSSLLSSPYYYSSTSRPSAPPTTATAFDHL
# Chain of Glucose-6-phosphate 1-dehydrogenase (P11413 whole entry): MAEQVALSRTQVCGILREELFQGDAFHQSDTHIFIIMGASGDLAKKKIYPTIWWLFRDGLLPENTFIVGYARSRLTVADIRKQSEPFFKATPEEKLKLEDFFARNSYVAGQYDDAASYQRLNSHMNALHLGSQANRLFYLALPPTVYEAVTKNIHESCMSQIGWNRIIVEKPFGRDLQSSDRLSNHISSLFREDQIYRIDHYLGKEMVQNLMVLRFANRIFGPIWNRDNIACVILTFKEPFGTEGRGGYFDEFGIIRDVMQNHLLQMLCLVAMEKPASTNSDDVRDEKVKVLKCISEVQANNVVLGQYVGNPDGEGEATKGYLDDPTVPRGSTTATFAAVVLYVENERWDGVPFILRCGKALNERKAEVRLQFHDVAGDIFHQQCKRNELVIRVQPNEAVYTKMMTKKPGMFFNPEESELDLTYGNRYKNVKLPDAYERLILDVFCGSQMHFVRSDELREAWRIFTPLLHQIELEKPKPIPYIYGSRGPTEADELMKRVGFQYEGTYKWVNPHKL
# Chain of 26S proteasome non-ATPase regulatory subunit 14 (O00487 whole entry): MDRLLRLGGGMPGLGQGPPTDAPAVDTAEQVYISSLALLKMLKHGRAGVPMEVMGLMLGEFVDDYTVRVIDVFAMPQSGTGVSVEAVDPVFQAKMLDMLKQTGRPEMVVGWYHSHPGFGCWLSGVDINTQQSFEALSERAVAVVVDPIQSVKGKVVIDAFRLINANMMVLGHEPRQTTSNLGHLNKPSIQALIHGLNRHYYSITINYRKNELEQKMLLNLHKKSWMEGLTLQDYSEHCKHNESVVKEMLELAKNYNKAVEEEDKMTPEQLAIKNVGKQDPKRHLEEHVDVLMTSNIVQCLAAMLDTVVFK
# Chain of 72 kDa type IV collagenase (P08253 whole entry): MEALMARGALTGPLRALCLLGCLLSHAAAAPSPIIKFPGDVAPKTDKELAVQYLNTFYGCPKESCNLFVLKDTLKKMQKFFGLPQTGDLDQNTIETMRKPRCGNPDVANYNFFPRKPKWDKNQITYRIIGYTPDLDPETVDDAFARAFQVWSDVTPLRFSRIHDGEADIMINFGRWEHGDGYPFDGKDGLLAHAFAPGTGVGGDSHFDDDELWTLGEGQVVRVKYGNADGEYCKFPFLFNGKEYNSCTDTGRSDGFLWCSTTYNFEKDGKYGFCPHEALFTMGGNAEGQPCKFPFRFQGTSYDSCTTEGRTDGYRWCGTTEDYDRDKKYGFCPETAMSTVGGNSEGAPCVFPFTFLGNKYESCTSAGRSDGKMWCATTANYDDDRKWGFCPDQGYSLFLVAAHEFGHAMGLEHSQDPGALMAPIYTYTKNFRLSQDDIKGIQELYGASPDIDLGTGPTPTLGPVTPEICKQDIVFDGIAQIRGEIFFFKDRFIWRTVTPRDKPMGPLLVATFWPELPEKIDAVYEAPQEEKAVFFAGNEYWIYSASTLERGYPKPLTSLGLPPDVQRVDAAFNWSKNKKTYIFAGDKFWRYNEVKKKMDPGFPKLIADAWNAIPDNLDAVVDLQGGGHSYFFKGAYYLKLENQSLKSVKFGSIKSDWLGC
smiles,measurement,setting,value
O=C(O)c1ccc(COc2ccccc2/C=C2/NC(=O)N(c3cccc(Cl)c3)C2=O)cc1,IC50,[1],2.75 µM (active)
same,IC50,[2],18.7 µM (active)
same,IC50,[3],15.6 µM (active)
same,IC50,Prothrombin,> 100 µM (inactive)
C[C@H]1CN([C@@H](C)CO)C(=O)Cc2cc(NC(=O)Nc3ccc(C(F)(F)F)cc3)ccc2O[C@@H]1CN(C)CC1CCCCC1,AC50,[4],3.54 µM (active)
O=C(CNC1CCCC1)Nc1ccc(N2CCCCCC2)cc1,CC50,[5],18.1 µM (active)
same,IC50,cells,17.8 µM (active)
same,IC50,[6],75.8 µM (active)
C[C@@H]1CN([C@H](C)CO)C(=O)c2cccc(NC(=O)Nc3cccc4ccccc34)c2O[C@@H]1CN(C)Cc1ccc(C(F)(F)F)cc1,AC50,[4],6.48 µM (active)
Cc1cc(OCC[N+]2(C)CCCCC2)nc2ccccc12,IC50,[1],3.69 µM (active)
CC(=O)c1cccc(NC(=O)c2cnn(-c3ccccc3)c2C)c1,IC50,[7],> 80 µM (inactive)
COc1ccc(CCn2c(C3CCCCC3)nc3c(c(=O)c4ccccc4n3C)c2=O)cc1,EC50,[8],> 120 µM (not active)
same,EC50,[9],0.438 µM (active)
same,EC50,[10],17.1 µM (active)
same,AC50,[11],2.4 µM (active)
same,CC50,Vero,9.23 µM (active)
C[C@@H]1CN([C@H](C)CO)C(=O)Cc2cc(NC(=O)Nc3ccc4c(c3)OCO4)ccc2O[C@@H]1CN(C)Cc1ccc(C(=O)Nc2ccccc2N)cc1,AC50,[4],2.04 µM (active)
C[C@H](CO)N1C[C@H](C)[C@@H](CN(C)Cc2ccc(Cl)c(Cl)c2)Oc2c(NC(=O)Nc3cccc4ccccc34)cccc2C1=O,AC50,[4],9.77 µM (active)
COc1cc(Cl)c(NC2=CC(=O)C(=O)c3ccccc32)c(OC)c1,AC50,[11],1.15 µM (active)
same,IC50,Caspase-3,28.8 µM (active)
same,IC50,[12],15.6 µM (active)
same,IC50,[13],9.11 µM (active)
same,IC50,[14],14.5 µM (active)
same,AC50,INS1,3.33 µM (active)
same,AC50,Paired box protein Pax-8,4.49 µM (active)
COc1ccc(S(=O)(=O)Nc2ccc3c(c2)C(=O)N([C@H](C)CO)C[C@H](C)[C@@H](CN(C)Cc2ccc(Cl)c(Cl)c2)OCCCC[C@@H](C)O3)cc1,AC50,[4],2.64 µM (active)
same,AC50,Paired box protein Pax-8,10.2 µM (active)
COc1ccccc1CNC(=O)COc1ccccc1C(=O)c1cnn(-c2ccccc2)c1,IC50,Caspase-3,21.9 µM (active)
same,IC50,[12],11.4 µM (active)
same,IC50,[13],26.1 µM (active)
same,IC50,[14],24.3 µM (active)
CC[N+]1=CN(c2ccccc2)C(C)=CC1(C)C,IC50,[1],6.23 µM (active)
